Experimental findings from patent US20080009019A1, “HIGH THROUGHPUT METHOD FOR SCREENING CANDIDATE COMPOUNDS FOR BIOLOGICAL ACTIVITY” (SmithKline Beecham Corporation, priority 2001, published 2008) are described below.

What all share (type): cell-based
In test [1] the target is T1, MC1R (Homo sapiens, UniProt Q01726). Description: Bead-based lawn assay, peptides photocleaved from beads in lawn of CHO-6CRE-luc+-MC1R cells. Set-up: expressed in transfected cells. Particulars: for response value at plateau compared with maximal response to [NDP]-α-MSH: 3-minute UV time point, FIG. 11B versus FIG. 11A; for UV exposure time point at which response began to plateau: 5 beads per peptide pushed into lawn, UV 365 nm for 0, 0.5, 1, 3, 10 minutes, FIG. 11B. Here is the method:
Agonists for GPCRs were assayed using beads to which peptides or compounds are attached by a photolinker. The beads were either mixed in the agarose or were applied to the surface of the lawn. The attached compound or peptide was cleaved by exposure to UV light.
Cell culture and assay methods were as described in Example 1. Hexamer peptides were linked to 200 micrometer […]™ microsphere beads (polystyrene core with […]™ pegs—available from Rapp Polymere GmbH of Tubingen, Germany) by a photocleavable linker. Two peptides were tested for validation purposes: Peptide 1-Ac-NH-Ser-Val-dHis-dPhe-Arg-Trp (SEQ ID NO:1) and Peptide 2-Ac-NH-Val-Ala-dHis-dPhe-Arg-Tyr (SEQ ID NO:2). Beads were added to the agarose lawn either by pushing the bead into the agarose with forceps or by suspending the beads in the melted agarose/cell mixture. Peptides were cleaved from the beads by exposure to ultraviolet light using a UV lamp set at 365 nm wavelength (λ).
A time course of delivery of MC1R agonist peptides 1 and 2, which were linked to beads (described in methods), to a lawn of CHO-6CRE-luc^+-MC1R cells is shown in FIGS. 10A-10E. The peptides were cleaved from the beads by increasing the time of UV exposure. FIGS. 10A-10E depict UV exposure for 0, 0.5, 1, 3, and 10 minutes, respectively. A concentration-response curve for of [NDP]-α-MSH was run in row 1 on each lawn at the same concentrations as in FIG. 9. Five (5) beads each of peptide 1 and 2 were pushed into the agarose layer with forceps. Peptide 1 and 2 were on the left and right of each lawn, respectively.
FIG. 11A is a line graph representation of the average luminescence of the 5 beads at each time point. The response was calculated by subtracting the background z value for the lawn from the z value for each area to which the bead was applied. The magnitude of response is dictated by both the response of the reporter cell line and the amount of peptide that can be released from the beads. Both peptide 1 and 2 are full agonists for MC1R when tested in a well-based reporter assay so both peptides are capable of eliciting a response similar to [NDP]-α-MSH.

The target of test [2] is T1, MC1R. Description: Well-based reporter assay.
Test [3] concerns the target T2, corticotrophin releasing factor receptor (CRHR1) (Homo sapiens, UniProt P34998).
T2 construct: expressed in transfected cells
T2 sequence (P34998 24-415): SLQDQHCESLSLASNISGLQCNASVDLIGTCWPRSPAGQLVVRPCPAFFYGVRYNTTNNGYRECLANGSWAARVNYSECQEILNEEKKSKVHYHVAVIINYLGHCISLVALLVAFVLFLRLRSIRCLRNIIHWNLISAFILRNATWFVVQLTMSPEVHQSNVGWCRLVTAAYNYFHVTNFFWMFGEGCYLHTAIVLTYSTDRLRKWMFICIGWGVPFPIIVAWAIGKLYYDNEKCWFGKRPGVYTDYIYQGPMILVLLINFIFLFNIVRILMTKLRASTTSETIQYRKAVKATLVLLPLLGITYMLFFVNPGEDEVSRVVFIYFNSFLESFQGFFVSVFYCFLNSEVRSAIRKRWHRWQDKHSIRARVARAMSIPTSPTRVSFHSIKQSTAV
Kind of test: Agarose lawn reporter assay, CHO-6xCRE-luc+ cells expressing CRH1 receptor. Particulars: approximately 10 nl of 5×10^−4 M to 1.5×10^−6 M peptide solution on lawn by HDR pin tool; 4 hours at 37° C.; FIGS. 7A-7B. From the text: Chinese hamster ovary (CHO) cells were transfected with a 6xCRE-luciferase^+reporter gene. A stable host cell line was selected, into which cloned human receptors were transfected. Stable cell lines expressing these receptors were selected for screening purposes.
A reporter gene host cell line stably expressing a reporter construct comprising 6 cyclic AMP response elements (CREs) driving the expression of luciferase (6xCRE-luciferase^+) was generated as described by Goetz et al., (2000) J. Biomolec. Screening 5:377-384. […]
1.5 grams of LMP agarose were dissolved in 100 ml of assay medium (DMEM/F12 medium containing 2% glutamine) in a microwave oven. […] The cells were collected from suspension culture and were re-suspended in 60 ml of assay medium for determination of quantity of cells. […]
Solutions of peptides were then delivered to the lawn using a HDR 96-pin tool that delivers approximately 10 nanoliters (nl) of solution. […] Luminescence was detected using a VIEWLUX® camera.
Images were acquired by focusing luminescent light from the OMNI PLATE® tray, for 90 seconds, onto a CCD camera chip via a telecentric lens. […] The gray intensity was determined by scanning each grid unit to determine where the highest point in the region was located. […] The x and y co-ordinates were recorded to facilitate the production of graphical representations of the data.

T1 sequence (Q01726 whole entry): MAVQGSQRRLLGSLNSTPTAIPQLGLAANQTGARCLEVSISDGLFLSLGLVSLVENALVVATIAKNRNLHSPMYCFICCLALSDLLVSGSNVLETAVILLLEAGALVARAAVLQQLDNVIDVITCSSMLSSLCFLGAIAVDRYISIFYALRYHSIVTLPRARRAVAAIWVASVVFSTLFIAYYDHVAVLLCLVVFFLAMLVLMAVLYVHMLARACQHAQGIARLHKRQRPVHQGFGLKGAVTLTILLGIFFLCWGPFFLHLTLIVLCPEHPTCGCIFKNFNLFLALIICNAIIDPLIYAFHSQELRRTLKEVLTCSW

In the case of “Ac-NH-Ser-Val-dHis-dPhe-Arg-Trp [peptide 1]”, in test [1], the “response value at plateau compared with maximal response to [NDP]-α-MSH” value is “well below the maximal response to [NDP]-α-MSH” and the “UV exposure time point at which response began to plateau” value came out at 3 min. The “agonist character for MC1R” value in test [2] is reported as “full agonists”.
Turning to corticotrophin releasing factor [CRH], in test [3], the “concentration-response curve of luminescence activity” value was “concentration-response curve of luminescence activity was only observed when peptide was applied to the cell line expressing the appropriate receptor”.
With “Ac-NH-Val-Ala-dHis-dPhe-Arg-Tyr [peptide 2]”, in test [1], the “response value at plateau compared with maximal response to [NDP]-α-MSH” value was “well below the maximal response to [NDP]-α-MSH” and the “UV exposure time point at which response began to plateau” value turned out to be 3 min. In test [2], the “agonist character for MC1R” value was “full agonists”.
